Source: the NIST ThermoML archive (doi:10.1021/je060271a)
Values joined by “and” are separate entries in the source; they are usually repeats but may differ in a detail not shown here. Equal values may be shown once.

Conditions: 343.15 K, Liquid, Vibrating tube method

CCCCCC(=O)OCC(COC(=O)CCCCC)(COC(=O)CCCCC)COC(=O)CCCCC [pentaerythritol tetrahexanoate]
Conditions | mass density
203.8 kPa | 957.2 kg/m3
203.9 kPa | 957.2 kg/m3 and 957.1 kg/m3
204 kPa | 957.1 kg/m3
204.1 kPa | 957.1 kg/m3 and 957.2 kg/m3
204.3 kPa | 957.2 kg/m3 and 957.3 kg/m3
204.5 kPa | 957.2 kg/m3 and 957.3 kg/m3
204.6 kPa | 957.2 kg/m3 and 957.3 kg/m3
204.8 kPa | 957.3 kg/m3 [middle of 4 runs]
205 kPa | 957.2 kg/m3 and 957.3 kg/m3
205.2 kPa | 957.2 kg/m3
205.3 kPa | 957.2 kg/m3 and 957.3 kg/m3
205.7 kPa | 957.2 kg/m3
205.9 kPa | 957.2 kg/m3
206 kPa | 957.2 kg/m3
206.2 kPa | 957.2 kg/m3
206.4 kPa | 957.2 kg/m3
206.6 kPa | 957.2 kg/m3 and 957.1 kg/m3
206.7 kPa | 957.3 kg/m3 and 957.2 kg/m3
206.9 kPa | 957.3 kg/m3 and 957.1 kg/m3
207.1 kPa | 957.2 kg/m3
207.2 kPa | 957.2 kg/m3
207.3 kPa | 957.2 kg/m3
207.4 kPa | 957.2 kg/m3
207.9 kPa | 957.3 kg/m3
208.3 kPa | 957.2 kg/m3
208.6 kPa | 957.2 kg/m3 and 957.1 kg/m3
208.8 kPa | 957.3 kg/m3 and 957.2 kg/m3
209 kPa | 957.2 kg/m3
209.2 kPa | 957.3 kg/m3 and 957.2 kg/m3
209.3 kPa | 957.2 kg/m3 and 957.3 kg/m3 and 957.1 kg/m3
209.5 kPa | 957.2 kg/m3
209.7 kPa | 957.2 kg/m3
209.9 kPa | 957.1 kg/m3 and 957.2 kg/m3
211.1 kPa | 957.2 kg/m3
212.5 kPa | 957.1 kg/m3
212.6 kPa | 957.2 kg/m3 and 957.3 kg/m3
212.7 kPa | 957.2 kg/m3
212.8 kPa | 957.1 kg/m3 and 957.2 kg/m3
213 kPa | 957.2 kg/m3
213.2 kPa | 957.2 kg/m3
213.3 kPa | 957.2 kg/m3
213.5 kPa | 957.3 kg/m3 and 957.2 kg/m3
213.7 kPa | 957.3 kg/m3 and 957.2 kg/m3 and 957.1 kg/m3
213.9 kPa | 957.2 kg/m3 and 957.1 kg/m3 and 957.4 kg/m3
214.2 kPa | 957.1 kg/m3
215.2 kPa | 957.2 kg/m3
215.3 kPa | 957.3 kg/m3
215.4 kPa | 957.2 kg/m3 and 957.1 kg/m3 and 957.3 kg/m3
215.6 kPa | 957.4 kg/m3 and 957.1 kg/m3 and 957.2 kg/m3
215.8 kPa | 957.3 kg/m3
215.9 kPa | 957.2 kg/m3
216 kPa | 957.3 kg/m3
216.1 kPa | 957.3 kg/m3 and 957.2 kg/m3
216.3 kPa | 957.2 kg/m3 and 957.3 kg/m3
216.5 kPa | 957.3 kg/m3 and 957.2 kg/m3
216.6 kPa | 957.3 kg/m3
216.8 kPa | 957.2 kg/m3 and 957.1 kg/m3
217.7 kPa | 957.2 kg/m3 and 957.3 kg/m3
218 kPa | 957.4 kg/m3
218.2 kPa | 957.1 kg/m3 and 957.2 kg/m3
218.6 kPa | 957.2 kg/m3
218.9 kPa | 957.2 kg/m3
219.1 kPa | 957.2 kg/m3
219.3 kPa | 957.3 kg/m3
219.4 kPa | 957.1 kg/m3 and 957.2 kg/m3 and 957.3 kg/m3
219.6 kPa | 957.4 kg/m3
219.8 kPa | 957.2 kg/m3
219.9 kPa | 957.1 kg/m3
220 kPa | 957.2 kg/m3
220.3 kPa | 957.2 kg/m3
220.5 kPa | 957.2 kg/m3
220.6 kPa | 957.1 kg/m3
220.8 kPa | 957.1 kg/m3
221 kPa | 957.1 kg/m3
221.2 kPa | 957.3 kg/m3
221.3 kPa | 957.2 kg/m3
222.7 kPa | 957.3 kg/m3
222.9 kPa | 957.1 kg/m3
223.1 kPa | 957.2 kg/m3
223.3 kPa | 957.3 kg/m3 and 957.4 kg/m3
223.4 kPa | 957.1 kg/m3 and 957.3 kg/m3 and 957.2 kg/m3
223.6 kPa | 957.2 kg/m3
223.8 kPa | 957.3 kg/m3
224.1 kPa | 957.2 kg/m3
224.3 kPa | 957.3 kg/m3 and 957.2 kg/m3
224.5 kPa | 957.2 kg/m3 and 957.3 kg/m3 and 957.1 kg/m3
224.7 kPa | 957.2 kg/m3
224.8 kPa | 957.3 kg/m3 and 957.2 kg/m3
225.2 kPa | 957.3 kg/m3
226.9 kPa | 957.2 kg/m3 and 957.3 kg/m3
227.1 kPa | 957.3 kg/m3
227.4 kPa | 957.2 kg/m3
231.3 kPa | 957.2 kg/m3 and 957.3 kg/m3
231.6 kPa | 957.3 kg/m3 and 957.1 kg/m3
232 kPa | 957.1 kg/m3 and 957.2 kg/m3
232.3 kPa | 957.3 kg/m3 and 957.2 kg/m3
232.5 kPa | 957.2 kg/m3
232.6 kPa | 957.3 kg/m3
232.7 kPa | 957.3 kg/m3
233 kPa | 957.2 kg/m3
233.2 kPa | 957.2 kg/m3
233.3 kPa | 957.2 kg/m3
233.5 kPa | 957.2 kg/m3
233.7 kPa | 957.3 kg/m3
233.9 kPa | 957.3 kg/m3
234 kPa | 957.2 kg/m3 and 957.3 kg/m3
234.4 kPa | 957.2 kg/m3
234.6 kPa | 957.1 kg/m3 and 957.4 kg/m3 and 957.3 kg/m3
234.7 kPa | 957.3 kg/m3
234.9 kPa | 957.2 kg/m3
235.1 kPa | 957.2 kg/m3
235.2 kPa | 957.2 kg/m3
235.6 kPa | 957.2 kg/m3
235.8 kPa | 957.1 kg/m3
236 kPa | 957.2 kg/m3
236.1 kPa | 957.2 kg/m3 and 957.3 kg/m3
236.3 kPa | 957.3 kg/m3
236.5 kPa | 957.1 kg/m3
236.6 kPa | 957.2 kg/m3
236.8 kPa | 957.2 kg/m3
237 kPa | 957.1 kg/m3 and 957.2 kg/m3 and 957.3 kg/m3
237.3 kPa | 957.3 kg/m3
237.5 kPa | 957.2 kg/m3
237.7 kPa | 957.2 kg/m3 and 957.4 kg/m3
237.9 kPa | 957.2 kg/m3
238 kPa | 957.3 kg/m3
238.2 kPa | 957.2 kg/m3
238.4 kPa | 957.3 kg/m3
238.6 kPa | 957.3 kg/m3
238.7 kPa | 957.3 kg/m3
238.9 kPa | 957.3 kg/m3
239.2 kPa | 957.1 kg/m3
239.3 kPa | 957.3 kg/m3
240.1 kPa | 957.3 kg/m3
240.3 kPa | 957.3 kg/m3
240.5 kPa | 957.3 kg/m3 and 957.2 kg/m3
240.6 kPa | 957.1 kg/m3
240.8 kPa | 957.3 kg/m3
241.2 kPa | 957.4 kg/m3
241.3 kPa | 957.3 kg/m3 and 957.2 kg/m3
241.5 kPa | 957.3 kg/m3 and 957.1 kg/m3
242 kPa | 957.3 kg/m3
242.2 kPa | 957.3 kg/m3
242.4 kPa | 957.2 kg/m3
242.6 kPa | 957.3 kg/m3
